IC50, EC50 and melting point data for 7 molecules are collected here from US6667307B2, “Sulfonylalkanoylamino hydroxyethylamino sulfonamide retroviral protease inhibitors” (G.D. Searle & Co., priority 1995, dated 2003).

The target of data set [1] is T1, HIV protease (Human immunodeficiency virus type 1 group M subtype B, UniProt P04585).
T1 construct: final enzyme concentration of 12.3 nanomolar, based on a molecular weight of 10,780
Kind of data set: HIV protease enzyme assay (fluorescence, peptide substrate). Format: biochemical. The conditions noted are these: HIV protease 12.3 nanomolar, substrate 80 μM, pH 6.4, ambient temperature. An excerpt:
The compounds of the present invention are effective HIV protease inhibitors. Utilizing an enzyme assay as described below, the compounds set forth in the examples herein disclosed inhibited the HIV enzyme. The preferred compounds of the present invention and their calculated IC50 (inhibiting concentration 50%, i.e., the concentration at which the inhibitor compound reduces enzyme activity by 50%) values are shown in Table 9. The enzyme method is described below. The substrate is 2-Ile-Nle-Phe(p-NO2)-Gln-ArgNH2. The positive control is MVT-101 (Miller, M. et al, Science, 2, 1149 (1989)) The assay conditions are as follows:
20 mM sodium phosphate, pH 6.4
The above described substrate is dissolved in DMSO, then diluted 10 fold in assay buffer. Final substrate concentration in the assay is 80 μM. HIV protease is diluted in the assay buffer to a final enzyme concentration of 12.3 nanomolar, based on a molecular weight of 10,780.
The final concentration of DMSO is 14% and the final concentration of glycerol is 18%. The test compound is dissolved in DMSO and diluted in DMSO to 10× the test concentration; 10 μl of the enzyme preparation is added, the materials mixed and then the mixture is incubated at ambient temperature for 15 minutes. The enzyme reaction is initiated by the addition of 40 μl of substrate. The increase in fluorescence is monitored at 4 time points (0, 8, 16 and 24 minutes) at ambient temperature. Each assay is carried out in duplicate wells.

Data set [2] deals with HIV-1 in CEM cells. Kind of data set: CEM cell assay: HIV inhibition in acutely infected cells (tetrazolium/MTT colorimetric). The class given is cell-based. The conditions noted are these: Human immunodeficiency virus 1, CCRF-CEM, 168 h, CEM cells acutely infected with HIV-1, 7 days, MTT readout. The method, then:
The effectiveness of various compounds were determined in the above-described enzyme assay and in a CEM cell assay. The HIV inhibition assay method of acutely infected cell infected cells is an automated tetrazolium based colorimetric assay essentially that reported by Pauwles et al, J. Virol. Methods, 20 ≡, 309-321 (1988). Assays were performed in 96-well tissue culture plates. CEM cells, a CD4^+ cell line. were grown in RPMI-1640 medium (Gibco) supplemented with a 10% fetal calf serum and were then treated with polybrene (2 μg/ml). An 80 μl volume of medium containing 1×10^4 cells was dispensed into each well of the tissue culture plate. To each well was added a 100 μl volume of test compound dissolved in tissue culture medium (or medium without test compound as a control) to achieve the desired final concentration and the cells were incubated at 37° C. for 1 hour. A frozen culture of HIV-1 was diluted in culture medium to a concentration of 5×10^4 TCID50 per ml (TCID50=the dose of virus that infects 50% of cells in tissue culture), and a 20 μL volume of the virus sample (containing 1000 TCID50 of virus) was added to wells containing test compound and to wells containing only medium (infected control cells). Several wells received culture medium without virus (uninfected control cells). Likewise, the intrinsic toxicity of the test compound was determined by adding medium without virus to several wells containing test compound. In summary, the tissue culture plates contained the following experiments: [table] In experiments 2 and 4 the final concentrations of test compounds were 1, 10, 100 and 500 μg/ml. Either azidothymidine (AZT) or dideoxyinosine (ddI) was included as a positive drug control. […] DMSO was added to all control wells at an appropriate concentration. Following the addition of virus, cells were incubated at 37° C. in a humidified, 5% CO2 atmosphere for 7 days. Test compounds could be added on days 0, 2 and 5 if desired. On day 7, post-infection, the cells in each well were resuspended and a 100 μl sample of each cell suspension was removed for assay. A 20 μL volume of a 5 mg/ml solution of 3-(4,5-dimethylthiazol-2-yl)-2,5-diphenyltetrazolium bromide (MTT) was added to each 100 μL cell suspension, and the cells were incubated for 4 hours at […] in a 5% CO2 environment. […] To each sample was added 100 μl of 10% sodium dodecylsulfate in 0.01 N HCl to lyse the cells, and samples were incubated overnight. The absorbance at 590 nm was determined for each sample using a Molecular Devices microplate reader. Absorbance values for each set of wells is compared to assess viral control infection, uninfected control cell response as well as test compound by cytotoxicity and antiviral efficacy.

The IC50 is the concentration that gives 50% inhibition. Low readings indicate higher potency, high ones lower potency. In data set [1], `CC(C)CN(C[C@@H](O)[C@H](Cc1ccccc1)NC(=O)[C@H](C)C[S+](C)[O-])S(=O)(=O)c1ccc2c(c1)OCO2` (single isomer, unassigned) [Entry 6] gave an IC50 of 7 nM.

Usually EC50 stands for the concentration needed to bring the measured effect to its halfway point. Higher therefore signals weaker potency. `CC(C)CN(C[C@@H](O)[C@H](Cc1ccccc1)NC(=O)[C@H](C)CS(C)(=O)=O)S(=O)(=O)c1ccc2c(c1)OCO2` [Entry 1] had an IC50 in data set [1] of 2 nM. The midpoint of the response in data set [2], the EC50, lay at 20 nM.

Regarding `CC(C)CN(C[C@@H](O)[C@H](Cc1ccccc1)NC(=O)[C@H](C)CS(C)(=O)=O)S(=O)(=O)c1ccc2c(c1)CCO2` [Entry 2], in data set [1], the IC50 was 2 nM. This molecule displayed an EC50 in data set [2] of 28 nM.

Turning to `CC(C)CN(C[C@@H](O)[C@H](Cc1ccccc1)NC(=O)[C@H](C)CS(C)(=O)=O)S(=O)(=O)c1ccc2ncsc2c1` [Entry 3], the midpoint of inhibition in data set [1], the IC50, lay at 3 nM. The EC50 in data set [2] stood at 26 nM.

Consider `CC(C)CN(C[C@@H](O)[C@H](Cc1ccccc1)NC(=O)[C@H](C)CS(C)(=O)=O)S(=O)(=O)c1ccc2c(c1)OCCO2` [Entry 4], for which the IC50 in data set [1] came to 2 nM. Further, the midpoint of the response in data set [2], the EC50, lay at 12 nM.

In the case of `CC(C)CN(C[C@@H](O)[C@H](Cc1ccccc1)NC(=O)[C@H](C)C[S+](C)[O-])S(=O)(=O)c1ccc2c(c1)OCO2` (stereo partly drawn) [Entry 5], in data set [1], 2 nM corresponded to half-maximal inhibition (IC50). Further, the EC50 in data set [2] worked out at 52 nM.

The term melting point denotes the temperature, or range, at which the solid turns liquid. For `CC(C)CN(C[C@@H](O)[C@H](Cc1ccccc1)NC(=O)[C@H](C)CS(C)(=O)=O)S(=O)(=O)c1ccc2c(c1)OCO2` [Example 47, N-[2R-hydroxy-3-[(2-methylpropyl)[(1,3-benzodioxol-5-yl)sulfonyl]amino]-1S-(phenylmethyl)propyl]-2S-methyl-3-(methylsulfonyl)propanamide], the melting point was 131.8 to 133.8 °C.
